The values below come from ChEMBL document CHEMBL3621188, “Evaluation of (acyloxy)alkyl ester linkers for antibiotic release from siderophore-antibiotic conjugates” (Bioorg Med Chem Lett, 2015).

Data set [1] in a line: Half life of compound in HEPES buffer measured at pH 7.5 and 30 DegC by HPLC analysis. Format: physicochemical.
Data set [2] in a line: Drug degradation in HEPES buffer assessed as decomposition measured at pH 7.5 and 30 DegC after 21 hrs by HPLC analysis. The following applies: read-out: Drug degradation. Format: physicochemical.
For the next data set, the system named is Escherichia coli. Description: Antimicrobial activity against Escherichia coli K-12 measured after 19 hrs. Type of data set: functional. The settings on record: K-12, 19 h.
Data set [3] in a line: Stability of compound in HEPES buffer assessed as hydrolysis measured at pH 7.5 and 30 DegC after 9 hrs by HPLC analysis. Format: physicochemical. The following applies: pH 7.5, 9 h.

Each structure is given as a SMILES string. ≈ marks a conversion by molar mass, not a printed value.

What is called half-life is the time needed for the level to fall by half in the phase considered. A high value points to slow decline. What is called MIC is the smallest concentration in the dilution series that meets the test's criterion for growth inhibition. Higher therefore signals weaker potency.

On to `CNCC(=O)OCOC(=O)N1CCN(c2cc3c(cc2F)c(=O)c(C(=O)O)cn3C2CC2)CC1`, for which the half-life in data set [1] is 0.35 h.
`CNCC(=O)OC(C)OC(=O)N1CCN(c2cc3c(cc2F)c(=O)c(C(=O)O)cn3C2CC2)CC1` (stereo not given) showed a half-life in data set [1] of 1.6 h. This half-life is about 4.6-fold higher than that of the molecule before.
Still for that read-out and setting: next, `CN[C@H](C(=O)OC(C)OC(=O)N1CCN(c2cc3c(cc2F)c(=O)c(C(=O)O)cn3C2CC2)CC1)C(C)C` (stereo not given in full): 2.4 h.
For the molecule `CC(OC(=O)[C@H](C)NC(=O)c1ccccc1)OC(=O)N1CCN(c2cc3c(cc2F)c(=O)c(C(=O)O)cn3C2CC2)CC1` (stereo not given in full), the half-life in data set [1] is over 60 h. Also, the degraded at 21 h in data set [2] stood at 20%.
The corresponding values for `CC(OC(=O)[C@@H](NC(=O)c1ccccc1)C(C)C)OC(=O)N1CCN(c2cc3c(cc2F)c(=O)c(C(=O)O)cn3C2CC2)CC1` (stereo not given in full) are over 130 h and 10%.
`CC(OC(=O)[C@H](C)NC(=O)c1cc(O)c(O)c(C(=O)N[C@H]2COC(=O)[C@@H](NC(=O)c3cccc(O)c3O)COC(=O)[C@@H](NC(=O)c3cccc(O)c3O)COC2=O)c1)OC(=O)N1CCN(c2cc3c(cc2F)c(=O)c(C(=O)O)cn3C2CC2)CC1` (stereo not given in full) showed a half-life in data set [1] of 8.1 h. The molecule also displayed an MIC with Escherichia coli of 1 µM (≈ 1.19 µg/mL). In data set [3], the Stability result was “Unstable”.
For the molecule `CC(OC(=O)[C@@H](NC(=O)c1cc(O)c(O)c(C(=O)N[C@H]2COC(=O)[C@@H](NC(=O)c3cccc(O)c3O)COC(=O)[C@@H](NC(=O)c3cccc(O)c3O)COC2=O)c1)C(C)C)OC(=O)N1CCN(c2cc3c(cc2F)c(=O)c(C(=O)O)cn3C2CC2)CC1` (stereo not given in full), the half-life in data set [1] was 9.9 h. The molecule further had an MIC against Escherichia coli of 1 µM (≈ 1.21 µg/mL). The Stability entry in data set [3] is “Unstable”.
The molecule `O=C(NCCCCCC(=O)N1CCN(c2cc3c(cc2F)c(=O)c(C(=O)O)cn3C2CC2)CC1)c1cc(O)c(O)c(C(=O)N[C@H]2COC(=O)[C@@H](NC(=O)c3cccc(O)c3O)COC(=O)[C@@H](NC(=O)c3cccc(O)c3O)COC2=O)c1` showed a half-life in data set [1] of 8.7 h.
In the case of `O=C(O)c1cn(C2CC2)c2cc(N3CCNCC3)c(F)cc2c1=O` [CIPROFLOXACIN], in the data set on Escherichia coli, the minimal inhibitory concentration (MIC) came out at 0.1 µM (≈ 0.0331 µg/mL).
